Experiments:
PBMC T cells = assay: Spontaneous T-cell responses against SVX-1 peptides in blood, IFN-γ ELISpot; assay type: cell-based, human; conditions: among the 6 positive patients
Procedure: Peripheral blood from 7 lung cancer patients was used to monitor the presence of SVX-1 peptides specific T cells. The cancer patients were recruited at the Hôpital Europeen Georges Pompidou (Paris, France). This study was conducted in accordance with French laws and after approval by the local ethics committee. Blood cells were also collected from 3 anonymous healthy donors at the Etablissement Français du Sang (EFS, Rungis, France) as buffy-coat preparations after informed consent and following EFS guidelines. The blood from the healthy donors served as negative controls.
PBMC were isolated by density centrifugation on Ficoll-Hyperpaque gradients (Sigma-Aldrich). PBMC were cultured for 6 days at 2×10^6 cells/ml in 2 ml per well with complete RPMI medium supplemented with 10% FCS. In each well, a pool of SVX-1 peptides was added at a concentration of 10 μg/ml. On day 2 after the beginning of the culture, IL-2 (Chiron) was added at 20 IU/ml in standard conditions. After 6 days of culture, ELISpot assays were performed using PHA-activated cells pulsed with the pool of SVX-1 peptides or the individual peptides (S1, S2 or S3) as antigen presenting cells (APCs). […]
Spots were counted using an automated stereomicro-scope (Zeiss). The number of specific T cells expressed as spot-forming cells/10^5 cells was calculated after subtracting negative control values (background). […]

[1] = system: Survivin peptides-specific T cell responses; assay: T cell immunogenicity in mouse strains, ex vivo IFN-γ ELISpot on total splenocytes; conditions: splenocytes re-stimulated with the individual SVX-1 peptides
Procedure: T cell immunogenicity of the mixture and individual Survivin derived polypeptides (S1, S2 and S3) was evaluated in different mouse strains (C57BL/6 (H2^b); BALB/c (H2^d) and CBA (H2^k)) and in the pre-clinical mouse model HLA-DRB1*0101, HLA-A*0201 (with α3 from D^b), H-2^/ transgenic mice (Tg HLA-A2/DR1). The objective of this study was to select the optimal genetic background to further investigate the immunogenicity and therapeutic efficacy of the SVX-1 vaccine composes of an equimolar mixture of these 3 Survivin LSPs.
Six (6) to ten (10) weeks old female C57BL/6, BALB/c, and CBA mice were obtained from Charles River (Saint-Germain-Nuelles, France).
The transgenic HLA-A2/DR1 mice, previously described (Pajot et al. 2004), were bred and maintained under specific pathogen-free conditions in an animal facility. […] One week after the last immunization (D21), spleen cells of immunized mice were harvested, and the induction of Survivin peptides-specific T cell responses was detected ex vivo using IFN-γ ELISpot assay on the total splenocytes (2×10^5 cells) re-stimulated overnight with the mix of peptides or the individual peptides. […]

## HRISTFKNWPFLEGCACT (alpha-isoform survivin S1 positions 17-34) [18 amino acid peptide consisting of wild type Survivin amino acids 17-34]
PBMC T cells
  Spontaneous T cell responses against individual peptides in lung cancer patients: detected
[1]
  T cell responses against individual peptides in CBA mice: mainly directed against the S1 peptides

From patent US20200061173A1, “IMMUNOGENIC COMPOSITION COMPRISING SURVIVIN PEPTIDES” (Vaxeal Research SAS, priority 2016, published 2020)
